Read-outs that look alike come from different tables or passages of the source.
Assays:
human STING = human STING (Homo sapiens, UniProt Q86WV6); assay: Fluorescence Thermal Shift assay (binding to STING); conditions: STING 0.1 mg/mL, SyproOrange, 25 to 99° C.
Experimental: Compounds, constructs and conjugates of the present invention were tested for binding to human STING in Fluorescence Thermal Shift assay. STING was preincubated with the compounds for 20 minutes in 50 mM Hepes, 150 mM NaCl, pH 7.5 in 15 or 16 μl volume, following by adding 4 μl of SyproOrange dye dilution (ThermoFisher, cat no. S-6651). Final STING concentration was 0.1 mg/mL. Thermal unfolding was performed in Real-Time PCR QuantStudio 6 Flex System (Applied Biosystems), from 25 to 99° C., with continuous ramp mode and ramp rate 0.033° C./s. The data were analyzed using Protein Thermal Shift Software (ThermoFisher).

[1] = system: interferon regulatory factor (IRF) pathway in THP-1 dual cells; assay: THP-1 Dual reporter assay, IRF pathway (luciferase); format: cell-based; conditions: for EC50: Homo sapiens, THP1-Dual, read-out: THP1 Dual EC50 (μM) IRF
Outline: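 Compounds (STING agonists) stimulated THP-1 dual cells for 18 h; the cells carry an ISG54 promoter/ISRE-driven luciferase (IRF) and an IFN-β minimal promoter/NF-κB element-driven SEAP. Luciferase in conditioned medium was read by luminescence immediately; SEAP by absorbance at 630 or 655 nm after 1 or 2 h at 37° C.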

[2] = system: NF-κB pathway in THP-1 dual cells; assay: THP-1 Dual reporter assay, NF-κB pathway (SEAP); format: cell-based; conditions: for EC50: Homo sapiens, THP1-Dual, read-out: THP1 Dual EC50 (μM) NFkB
Outline: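 Luminescence (IRF arm, luciferase under ISG54 minimal promoter with five ISREs) and absorbance at 630 or 655 nm (NF-κB arm, SEAP under IFN-β minimal promoter with NF-κB elements) were measured in supernatants of THP-1 dual cells stimulated 18 h with compound.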

[3] = 18 h stimulation, absorbance at 630 or 655 nm

human STING, sequence (Q86WV6 whole entry H232R): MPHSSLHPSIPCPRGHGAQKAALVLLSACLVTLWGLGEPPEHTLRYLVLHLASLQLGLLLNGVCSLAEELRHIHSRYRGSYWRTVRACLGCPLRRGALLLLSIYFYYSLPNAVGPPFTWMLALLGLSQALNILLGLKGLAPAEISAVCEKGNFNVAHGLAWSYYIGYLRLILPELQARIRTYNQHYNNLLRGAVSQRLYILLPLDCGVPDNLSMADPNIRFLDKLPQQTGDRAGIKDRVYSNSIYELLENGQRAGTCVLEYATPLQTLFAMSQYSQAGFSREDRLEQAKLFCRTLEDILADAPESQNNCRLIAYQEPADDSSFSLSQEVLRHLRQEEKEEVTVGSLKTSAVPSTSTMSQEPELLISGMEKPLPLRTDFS

COCCn1cc(CN(Cc2ccnc(C)c2)[C@H]2CCCN(c3ccc(N)nc3)C2)c(=O)c2ccccc21.Cl [Example 21, 3-({[(3S)-1-(6-aminopyridin-3-yl)piperidin-3-yl][(2-methylpyridin-4-yl)methyl]amino}methyl)-1-(2-methoxyethyl)-1,4-dihydroquinolin-4-one hydrochloride]
hSTING FTS binding assay (ΔT C. °) (human STING): +++ (+++=ΔTm ≥20° C.) | EC50 ([1]; 18 h stimulation, luminescence): < 1 µM | EC50 [2, 3]: < 1 µM

Cc1ccc(N2CCC[C@H](N(Cc3ccnc(C)c3)Cc3cn(C4CC4)c4cc(N5CC(N)C6(CC6)C5)c(F)cc4c3=O)C2)cn1.Cl (stereo partly drawn) [Example 22, 7-{7-amino-5-azaspiro[2.4]heptan-5-yl}-1-cyclopropyl-6-fluoro-3-({[(3S)-1-(6-methylpyridin-3-yl)piperidin-3-yl][(2-methylpyridin-4-yl)methyl]amino}methyl)-1,4-dihydroquinolin-4-one hydrochloride]
hSTING FTS binding assay (ΔT C. °) (human STING): +++ (+++=ΔTm ≥20° C.) | EC50 ([1]; 18 h stimulation, luminescence): < 1 µM | EC50 [2, 3]: < 1 µM

Cc1ccc(N2CCC[C@H](N(Cc3ccnc(C)c3)Cc3cn(C)c4cc(N5CC[C@@H](O)C5)ccc4c3=O)C2)cn1 [Example 23, 7-[(3R)-3-hydroxypyrrolidin-1-yl]-1-methyl-3-({[(3S)-1-(6-methylpyridin-3-yl)piperidin-3-yl][(2-methylpyridin-4-yl)methyl]amino}methyl)-1,4-dihydroquinolin-4-one]
hSTING FTS binding assay (ΔT C. °) (human STING): ++ (++=10<ΔTm <20° C.) | EC50 ([1]; 18 h stimulation, luminescence): < 1 µM | EC50 [2, 3]: < 1 µM

Cc1ccc(N2CCC[C@H](N(Cc3ccnc(C)c3)Cc3cn(C4CC4)c4cc(N5CCC(N)C(F)(F)C5)c(F)cc4c3=O)C2)cn1 (stereo partly drawn) [Example 26, 7-(4-amino-3,3-difluoropiperidin-1-yl)-1-cyclopropyl-6-fluoro-3-({[(3S)-1-(6-methylpyridin-3-yl)piperidin-3-yl][(2-methylpyridin-4-yl)methyl]amino}methyl)-1,4-dihydroquinolin-4-one]
hSTING FTS binding assay (ΔT C. °) (human STING): +++ (+++=ΔTm ≥20° C.) | EC50 ([1]; 18 h stimulation, luminescence): < 1 µM | EC50 [2, 3]: < 1 µM

Cc1ccc(N2CCC[C@H](N(Cc3ccnc(C)c3)Cc3cn(C4CC4)c4cc(N5CC(CO)C5)c(F)cc4c3=O)C2)cn1 [Example 27, 1-cyclopropyl-6-fluoro-7-[3-(hydroxymethyl)azetidin-1-yl]-3-({[(3S)-1-(6-methylpyridin-3-yl)piperidin-3-yl][(2-methylpyridin-4-yl)methyl]amino}methyl)-1,4-dihydroquinolin-4-one]
hSTING FTS binding assay (ΔT C. °) (human STING): +++ (+++=ΔTm ≥20° C.) | EC50 ([1]; 18 h stimulation, luminescence): < 1 µM | EC50 [2, 3]: < 1 µM

Cc1ccc(N2CCC[C@H](N(Cc3ccnc(C)c3)Cc3cn(C4CC4)c4cc(N5CCC[C@@H](O)C5)c(F)cc4c3=O)C2)cn1.Cl [Example 28, 1-cyclopropyl-6-fluoro-7-[(3R)-3-hydroxypiperidin-1-yl]-3-({[(3S)-1-(6-methylpyridin-3-yl)piperidin-3-yl][(2-methylpyridin-4-yl)methyl]amino}methyl)-1,4-dihydroquinolin-4-one hydrochloride]
hSTING FTS binding assay (ΔT C. °) (human STING): +++ (+++=ΔTm ≥20° C.) | EC50 ([1]; 18 h stimulation, luminescence): < 1 µM | EC50 [2, 3]: < 1 µM

Cc1cc(CN(Cc2cn(C)c3cc(Br)ccc3c2=O)[C@H]2CCCN(c3ccc(N)nc3)C2)ccn1.Cl [Example 29, 3-({[(3S)-1-(6-aminopyridin-3-yl)piperidin-3-yl][(2-methylpyridin-4-yl)methyl]amino}methyl)-7-bromo-1-methyl-1,4-dihydroquinolin-4-one hydrochloride]
hSTING FTS binding assay (ΔT C. °) (human STING): +++ (+++=ΔTm ≥20° C.) | EC50 ([1]; 18 h stimulation, luminescence): < 1 µM | EC50 [2, 3]: < 1 µM

Cc1ccc(N2CCC[C@H](N(Cc3ccnc(C)c3)Cc3cn(C4CC4)c4cc(N5CCC(F)(CN)C5)c(F)cc4c3=O)C2)cn1 (stereo partly drawn) [Example 30, 7-[3-(aminomethyl)-3-fluoropyrrolidin-1-yl]-1-cyclopropyl-6-fluoro-3-({[(3S)-1-(6-methylpyridin-3-yl)piperidin-3-yl][(2-methylpyridin-4-yl)methyl]amino}methyl)-1,4-dihydroquinolin-4-one]
hSTING FTS binding assay (ΔT C. °) (human STING): +++ (+++=ΔTm ≥20° C.) | EC50 ([1]; 18 h stimulation, luminescence): < 1 µM | EC50 [2, 3]: < 1 µM

Cc1ccc(N2CCC[C@H](N(Cc3ccnc(C)c3)Cc3cn(C4CC4)c4cc(N5CCC(O)CC5)c(F)cc4c3=O)C2)cn1.Cl [Example 32, 1-cyclopropyl-6-fluoro-7-(4-hydroxypiperidin-1-yl)-3-({[(3S)-1-(6-methylpyridin-3-yl)piperidin-3-yl][(2-methylpyridin-4-yl)methyl]amino}methyl)-1,4-dihydroquinolin-4-one hydrochloride]
hSTING FTS binding assay (ΔT C. °) (human STING): +++ (+++=ΔTm ≥20° C.) | EC50 ([1]; 18 h stimulation, luminescence): < 1 µM | EC50 [2, 3]: < 1 µM

CNC1CCN(c2cc3c(cc2F)c(=O)c(CN(Cc2ccnc(C)c2)[C@H]2CCCN(c4ccc(C)nc4)C2)cn3C2CC2)C1 (stereo partly drawn) [Example 33, 1-cyclopropyl-6-fluoro-7-[3-(methylamino)pyrrolidin-1-yl]-3-({[(3S)-1-(6-methylpyridin-3-yl)piperidin-3-yl][(2-methylpyridin-4-yl)methyl]amino}methyl)-1,4-dihydroquinolin-4-one]
hSTING FTS binding assay (ΔT C. °) (human STING): +++ (+++=ΔTm ≥20° C.) | EC50 ([1]; 18 h stimulation, luminescence): < 1 µM | EC50 [2, 3]: < 1 µM

Cc1cc(CN(Cc2cn(C(C)C)c3ccccc3c2=O)[C@H]2CCCN(c3ccc(N)nc3)C2)ccn1.Cl [Example 34, 3-({[(3S)-1-(6-aminopyridin-3-yl)piperidin-3-yl][(2-methylpyridinyl-4-yl)methyl]amino}methyl)-1-(propan-2-yl)-1,4-dihydroquinolin-4-one hydrochloride]
hSTING FTS binding assay (ΔT C. °) (human STING): +++ (+++=ΔTm ≥20° C.) | EC50 ([1]; 18 h stimulation, luminescence): < 1 µM | EC50 [2, 3]: < 1 µM

Cc1cc(CN(Cc2cn(C3COC3)c3ccccc3c2=O)[C@H]2CCCN(c3ccc(N)nc3)C2)ccn1 [Example 35, 3-({[(3S)-1-(6-aminopyridin-3-yl)piperidin-3-yl][(2-methylpyridin-4-yl)methyl]amino}methyl)-1-(oxetan-3-yl)-1,4-dihydroquinolin-4-one]
hSTING FTS binding assay (ΔT C. °) (human STING): +++ (+++=ΔTm ≥20° C.) | EC50 ([1]; 18 h stimulation, luminescence): < 1 µM | EC50 [2, 3]: < 1 µM

Cc1ccc(N2CCC[C@H](N(Cc3ccnc(C)c3)Cc3cn(C4CC4)c4nc(N5CC[C@@H](O)C5)c(F)cc4c3=O)C2)cn1.Cl [Example 37, 1-cyclopropyl-6-fluoro-7-[(3R)-3-hydroxypyrrolidin-1-yl]-3-({[(3S)-1-(6-methylpyridin-3-yl)piperidin-3-yl][(2-methylpyridin-4-yl)methyl]amino}methyl)-1,4-dihydro-1,8-naphthyridin-4-one hydrochloride]
hSTING FTS binding assay (ΔT C. °) (human STING): +++ (+++=ΔTm ≥20° C.) | EC50 ([1]; 18 h stimulation, luminescence): < 1 µM | EC50 [2, 3]: < 1 µM

Cc1cc(CN(Cc2cn(C)c3cc(N4CCC(C(=O)O)CC4)ccc3c2=O)[C@H]2CCCN(c3cccnc3)C2)ccn1 [Example 46, 1-[1-methyl-3-({[(2-methylpyridin-4-yl)methyl][(3S)-1-(pyridin-3-yl)piperidin-3-yl]amino}methyl)-4-oxo-1,4-dihydroquinolin-7-yl]piperidine-4-carboxylic acid]
hSTING FTS binding assay (ΔT C. °) (human STING): ++ (++=10<ΔTm <20° C.) | EC50 ([1]; 18 h): > 10 µM | EC50 ([2]; 18 h): > 10 µM

Cc1ccc(N2CCC[C@H](N(Cc3ccnc(C)c3)Cc3cn(C4CC4)c4cc(OCCO)c(F)cc4c3=O)C2)cn1 [Example 47, 1-Cyclopropyl-6-fluoro-7-(2-hydroxyethoxy)-3-({[(3S)-1-(6-methylpyridin-3-yl)piperidin-3-yl][(2-methylpyridin-4-yl)methyl]amino}methyl)-1,4-dihydroquinolin-4-one]
hSTING FTS binding assay (ΔT C. °) (human STING): +++ (+++=ΔTm ≥20° C.) | THP1 Dual EC50 (μM) IRF ([1]; 18 h stimulation, luminescence): + + + | THP1 Dual EC50 (μM) NFkB [2, 3]: + + +

Cc1cc(CN(Cc2cn(C(C)C)c3cc(N4CC[C@@H](O)C4)ccc3c2=O)[C@H]2CCCN(c3ccnnc3)C2)ccn1 [Example 49, 7-[(3R)-3-hydroxypyrrolidin-1-yl]-3-({[(2-methylpyridin-4-yl)methyl][(3S)-1-(pyridazin-4-yl)piperidin-3-yl]amino}methyl)-1-(propan-2-yl)-1,4-dihydroquinolin-4-one]
hSTING FTS binding assay (ΔT C. °) (human STING): + (+=ΔTm ≤10° C.) | EC50 ([1]; 18 h stimulation, luminescence): > 10 µM | EC50 [2, 3]: > 10 µM

CN[C@@H]1CCN(c2cc3c(cc2F)c(=O)c(CN(Cc2ccnc(C)c2)[C@H]2CCCN(c4ccc(C)nc4)C2)cn3C2CC2)C1.Cl [Example 55, 1-Cyclopropyl-6-fluoro-7-[(3R)-3-(methylamino)pyrrolidin-1-yl]-3-({[(3S)-1-(6-methylpyridin-3-yl)piperidin-3-yl][(2-methylpyridin-4-yl)methyl]amino}methyl)-1,4-dihydroquinolin-4-one hydrochloride]
hSTING FTS binding assay (ΔT C. °) (human STING): +++ (+++=ΔTm ≥20° C.) | EC50 ([1]; 18 h stimulation, luminescence): < 1 µM | EC50 [2, 3]: < 1 µM
